# From patent US11357779B2 (G1 Therapeutics, Inc., priority 2018, dated 2022)
# Like-named read-outs stand apart in the source and are kept apart here.
# Experiment: Noncompartmental pharmacokinetic parameters (Cmax, Tmax, AUC, Racc) in QD and BID cohorts of Form B
# Type: in vivo, human
# Conditions: Compound III; for AUC(0-t) / Cmax / Tmax: human, plasma, oral
# Method: Analysis of plasma concentration versus time data for calculation of standard pharmacokinetic (PK) parameters following oral administration was conducted using Phoenix WinNonlin version 6.3 using actual blood sampling times.
# The following pharmacokinetic parameters were calculated from the concentration versus time data obtained in Example 1 for each of the above QD (200 mg, 300 mg, 400 mg, 500 mg, or 650 mg dosed) and BID (100 mg, 150 mg, or 200 mg doses) Form B of Compound II dosage cohorts: • Cmax—the observed peak plasma concentration determined from the plasma concentration versus time data obtained on Day 1 and Day 29, as applicable; • Tmax—the time to reach the observed peak plasma concentration from the plasma concentration versus time data obtained on Day 1 and Day 29, as applicable; • AUC—area under the plasma concentration versus time curve during a dosing interval on Day 1 and Day 29, as applicable; and • Racc—accumulation ratio calculated as AUCDay 29/AUCDay 1.
# [1] = 100 mg BID of Form B, Cohort 6, Day 1
# [2] = 100 mg BID of Form B, Cohort 6, Day 29
# [3] = 150 mg BID of Form B, Cohort 7, Day 1
# [4] = 150 mg BID of Form B, Cohort 7, Day 29
# [5] = 200 mg BID of Form B, Cohort 8, Day 1
# [6] = 200 mg BID of Form B, Cohort 8, Day 29
# [7] = 200 mg QD of Form B, Cohort 1, Day 1
# [8] = 200 mg QD of Form B, Cohort 1, Day 29
# [9] = 300 mg QD of Form B, Cohort 2, Day 1
# [10] = 300 mg QD of Form B, Cohort 2, Day 29
# [11] = 400 mg QD of Form B, Cohort 3, Day 1
# [12] = 400 mg QD of Form B, Cohort 3, Day 29
# [13] = 500 mg QD of Form B, Cohort 4, Day 1
# [14] = 500 mg QD of Form B, Cohort 4, Day 29
# [15] = 650 mg QD of Form B, Cohort 5, Day 1
# [16] = 650 mg QD of Form B, Cohort 5, Day 29
structure (smiles),measurement,setting,value
"O=C1NCC2(CCCCC2)n2c1cc1cnc(Nc3ccc(N4CCNCC4)cn3)nc12 [Compound III, 2′-((5-(piperazin-1-yl)pyridin-2-yl)amino)-7′,8′-dihydro-6′H-spiro[cyclohexane-1,9′-pyrazino[1′,2′:1,5]pyrrolo[2,3-d]pyrimidin]-6′-one]",AUClast (Max),[1],8.61 ng·h/mL
same,AUClast (Min),[1],2.87 ng·h/mL
same,Cmax (Max),[1],2.12 ng/mL
same,Cmax (Min),[1],1.11 ng/mL
same,AUClast (Max),[2],21.6 ng·h/mL
same,AUClast (Min),[2],3.45 ng·h/mL
same,Cmax (Max),[2],3.11 ng/mL
same,Cmax (Min),[2],0.855 ng/mL
same,Tmax (Max),[2],12.0 h
same,AUClast (Max),[3],17.5 ng·h/mL
same,AUClast (Min),[3],15.7 ng·h/mL
same,Cmax (Max),[3],3.67 ng/mL
same,Cmax (Min),[3],2.93 ng/mL
same,AUClast (Max),[4],101 ng·h/mL
same,AUClast (Min),[4],19.4 ng·h/mL
same,Cmax (Max),[4],12.2 ng/mL
same,Cmax (Min),[4],2.93 ng/mL
same,AUClast (Max),[5],25.4 ng·h/mL
same,AUClast (Min),[5],6.18 ng·h/mL
same,Cmax (Max),[5],4.07 ng/mL
same,Cmax (Min),[5],1.40 ng/mL
same,AUClast (Max),[6],30.8 ng·h/mL
same,AUClast (Min),[6],15.2 ng·h/mL
same,Cmax (Max),[6],4.12 ng/mL
same,Cmax (Min),[6],1.49 ng/mL
same,Tmax (Max),[6],12.0 h
same,AUClast (Max),[7],58.5 ng·h/mL
same,AUClast (Min),[7],5.29 ng·h/mL
same,Cmax (Max),[7],7.82 ng/mL
same,Cmax (Min),[7],1.27 ng/mL
same,AUClast (Max),[8],64.2 ng·h/mL
same,AUClast (Min),[8],1.97 ng·h/mL
same,Cmax (Max),[8],6.11 ng/mL
same,Cmax (Min),[8],0.864 ng/mL
same,AUClast (Max),[9],65.2 ng·h/mL
same,AUClast (Min),[9],10.9 ng·h/mL
same,Cmax (Max),[9],6.40 ng/mL
same,Cmax (Min),[9],1.82 ng/mL
same,Tmax (Min),[9],60 min
same,AUClast (Max),[10],97.5 ng·h/mL
same,AUClast (Min),[10],45.1 ng·h/mL
same,Cmax (Max),[10],6.05 ng/mL
same,Cmax (Min),[10],4.70 ng/mL
same,Tmax (Max),[10],8.00 h
same,AUClast (Max),[11],29.8 ng·h/mL
same,AUClast (Min),[11],17.8 ng·h/mL
same,Cmax (Max),[11],6.87 ng/mL
same,Cmax (Min),[11],3.02 ng/mL
same,Tmax (Min),[11],60 min
same,AUClast (Max),[12],54.7 ng·h/mL
same,AUClast (Min),[12],32.2 ng·h/mL
same,Cmax (Max),[12],4.54 ng/mL
same,Cmax (Min),[12],2.55 ng/mL
same,AUClast (Max),[13],91.4 ng·h/mL
same,AUClast (Min),[13],61.6 ng·h/mL
same,Cmax (Max),[13],9.03 ng/mL
same,Cmax (Min),[13],6.84 ng/mL
same,AUClast (Max),[14],69.8 ng·h/mL
same,AUClast (Min),[14],59.8 ng·h/mL
same,Cmax (Max),[14],7.91 ng/mL
same,AUClast (Max),[15],174 ng·h/mL
same,AUClast (Min),[15],61.8 ng·h/mL
same,Cmax (Max),[15],16.5 ng/mL
same,Cmax (Min),[15],5.56 ng/mL
same,Tmax (Max),[15],8.00 h
same,AUClast (Max),[16],169 ng·h/mL
same,AUClast (Min),[16],80.6 ng·h/mL
same,Cmax (Max),[16],12.1 ng/mL
same,Cmax (Min),[16],5.30 ng/mL
same,Tmax (Max),[16],8.00 h
same,AUC(0-t),"100 mg, 100 mg BID of Form B, Cohort 6, Day 1, read-out: AUClast (Mean)",5.37 ng·h/mL
same,AUC(0-t),"100 mg, 100 mg BID of Form B, Cohort 6, Day 1, read-out: AUClast (Median)",5.18 ng·h/mL
same,Cmax,"100 mg, 100 mg BID of Form B, Cohort 6, Day 1, read-out: Cmax (Mean)",1.59 ng/mL
same,Cmax,"100 mg, 100 mg BID of Form B, Cohort 6, Day 1, read-out: Cmax (Median)",1.6 ng/mL
same,Tmax,"100 mg, 100 mg BID of Form B, Cohort 6, Day 1, read-out: Tmax (Mean)",3.17 h
same,Tmax,"100 mg, 100 mg BID of Form B, Cohort 6, Day 1, read-out: Tmax (Median)",3 h
same,AUC(0-t),"100 mg, 100 mg BID of Form B, Cohort 6, Day 29, read-out: AUClast (Mean)",13 ng·h/mL
same,AUC(0-t),"100 mg, 100 mg BID of Form B, Cohort 6, Day 29, read-out: AUClast (Median)",9.86 ng·h/mL
same,Cmax,"100 mg, 100 mg BID of Form B, Cohort 6, Day 29, read-out: Cmax (Mean)",1.89 ng/mL
same,Cmax,"100 mg, 100 mg BID of Form B, Cohort 6, Day 29, read-out: Cmax (Median)",1.56 ng/mL
same,Tmax,"100 mg, 100 mg BID of Form B, Cohort 6, Day 29, read-out: Tmax (Mean)",4.4 h
same,Tmax,"100 mg, 100 mg BID of Form B, Cohort 6, Day 29, read-out: Tmax (Median)",2 h
same,AUC(0-t),"150 mg, 150 mg BID of Form B, Cohort 7, Day 1, read-out: AUClast (Mean)",16.5 ng·h/mL
